According to patent US9278962B2 (Cytokinetics, Inc., priority 2011, dated 2016):

Test system: rabbit skeletal myofibrils (approximately 90% fast fibers)
Experiment: Activation of fast skeletal myofibrils (PUMA coupled-enzyme ATPase assay, AC1.4)
Type: biochemical
Conditions: concentration at which the compound increased enzymatic activity by 40%, calcium at pCa25
Protocol: Rabbit skeletal myofibrils were prepared based upon the method of Herrmann et al. (Biochem. 32(28):7255-7263(1993). Myofibrils were prepared from rabbit psoas muscle purchased from Pel-Freez Biologicals (Arkansas) within 2 days of ordering, stored on ice. Minced muscle was homogenized in 10 volumes of ice-cold “standard” buffer (50 mM Tris, pH 7.4, 0.1 M potassium acetate, 5 mM KCl, 2 mM DTT, 0.2 mM PMSF, 10 μM leupeptin, 5 μM pepstatin, and 0.5 mM sodium azide) containing 5 mM EDTA and 0.5% Triton X-100 using an Omni-Macro homogenizer. Myofibrils were recovered by low speed centrifugation (3000 rpm for 10 minutes) and washed 2 times in the Triton X-100 containing buffer to ensure removal of cellular membrane. Following the Triton washes, myofibrils were washed 3 times in “standard” buffer containing 2 mM magnesium acetate. A final wash in assay buffer (12 mM PIPES, pH 6.8, 60 mM KCl, 1 mM DTT) was performed and brought to 10% sucrose for flash freezing in liquid nitrogen and storage at −80° C.
Fast fiber activators were identified by measuring the enzymatic activity of muscle myofibril preparations using the proprietary PUMA™ (see, e.g., U.S. Pat. Nos. 6,410,254, 6,743,599, 7,202,051, and 7,378,254) assay system. Myofibril preparations consisted of rabbit skeletal muscle (approximately 90% fast fibers) that had been mechanically homogenized and washed with a detergent (triton X-100) to remove cellular membranes. This preparation retained all of the sarcomeric components in a native conformation and the enzymatic activity was still regulated by calcium. Compounds were tested using a myofibril suspension and a level of calcium sufficient to increase enzymatic activity of the myofibrils to 25% of their maximal rate (termed pCa25). Enzymatic activity was tracked via a pyruvate kinase and lactate dehydrogenase-coupled enzyme system. This assay regenerates myosin-produced ADP into ATP by oxidizing NADH, producing an absorbance change at 340 nm. The buffering system was 12 mM Pipes, 2 mM MgCl2, 1 mM DTT at pH 6.8 (PM12 buffer).
Using procedures similar to those described herein, utilizing reagents and intermediates commercially available (e.g., Sigma-Aldrich) or readily synthesized by one of skill in the art, the compounds in Table 2, Table 3, Table 4 and Table 5 were synthesized, characterized and tested. AC1.4 values were determined according to the procedure described in Example 6, and the reported median AC1.4 values are as follows: A=<1 uM; B=1-10 uM; C=10-20 uM; D=>20 uM.

Structure (SMILES)	Mean AC1.4 (Table 4)	Mean AC1.4 (Table 2)	also measured
N#Cc1ccc2nc(NCC3(c4ccc(F)cc4)CCC3)sc2c1 [2-((1-(4-fluorophenyl)cyclobutyl)methylamino) benzo[d]thiazole-6-carbonitrile]	A (A=<1 uM)	–	–
NC(=O)c1ccc2nc(NCC3(c4ccc(F)cc4)CCC3)sc2c1 [2-((1-(4-fluorophenyl)cyclobutyl)methylamino) benzo[d]thiazole-6-carboxamide]	A (A=<1 uM)	–	–
COc1ccc(C2(CNc3nc4ccc(C(N)=O)cc4s3)CCC2)nc1 [2-((1-(5-methoxypyridin-2-yl)cyclobutyl)methylamino)benzo[d] thiazole-6-carboxamide]	C (C=10-20 uM)	–	–
COc1cccc(C2(CNc3nc4ccc(C#N)cc4s3)CCC2)n1 [2-((1-(6-methoxypyridin-2-yl)cyclobutyl)methylamino)benzo[d] thiazole-6-carbonitrile]	B (B=1-10 uM)	–	–
N#Cc1ccc2nc(NCC3(c4ccccn4)CCC3)sc2c1 [2-((1-(pyridin-2-yl)cyclobutyl)methylamino)benzo[d] thiazole-6-carbonitrile]	C (C=10-20 uM)	–	–
NC(=O)c1ccc2nc(NCC3(c4ccccn4)CCC3)sc2c1 [2-((1-(pyridin-2-yl)cyclobutyl)methylamino)benzo[d] thiazole-6-carboxamide]	B (B=1-10 uM)	–	–
NC(=O)c1ccc2sc(NC[C@]3(c4ncccc4F)C[C@H](F)C3)nc2c1 [2-((3-fluoro-1-(3-fluoropyridin-2-yl)cyclobutyl)methylamino)benzo[d] thiazole-5-carboxamide]	C (C=10-20 uM)	–	–
CC(C)(CNc1nc(CCCNC(=O)CN)ns1)c1ccc(F)cc1 [2-amino-N-[3-(5-{[2-(4-fluorophenyl)-2-methylpropyl]amino}(1,2,4-thiadiazol-3-yl))propyl]acetamide]	–	B (B=1-10 uM)	–
CC(C)(CNc1nc(-c2ccc(C#N)c(F)c2)ns1)c1ccc(F)cc1 [2-fluoro-4-(5-{[2-(4-fluorophenyl)-2-methylpropyl]amino}(1,2,4-thiadiazol-3-yl))benzenecarbonitrile]	–	B (B=1-10 uM)	–
CC(C)(CNc1nc(CNCCO)ns1)c1ccc(F)cc1 [2-{[(5-{[2-(4-fluorophenyl)-2-methylpropyl]amino}-1,2,4-thiadiazol-3-yl)methyl]amino}ethan-1-ol]	–	D (D=>20 uM)	–
CC(C)(CNc1nsc(-c2cccc(C(N)=O)c2)n1)c1ccc(F)cc1 [3-(3-{[2-(4-Fluorophenyl)-2-methylpropyl]amino}-1,2,4-thiadiazol-5-yl)benzamide]	–	B (B=1-10 uM)	–
NC(=O)c1cccc(-c2nnc(NCC3(c4ncccc4F)CCC3)s2)c1 [3-(5-((1-(3-fluoropyridin-2-yl)cyclobutyl)methylamino)-1,3,4-thiadiazol-2-yl)benzamide]	–	–	Mean AC1.4 (Table 3): A (A=<1 uM)
N#Cc1cccc(-c2nnc(NCC3(c4ncccc4F)CCC3)s2)c1 [3-(5-((1-(3-fluoropyridin-2-yl)cyclobutyl)methylamino)-1,3,4-thiadiazol-2-yl)benzonitrile]	–	–	Mean AC1.4 (Table 3): B (B=1-10 uM)
Cc1ccc(C(N)=O)cc1-c1nnc(NC[C@]2(c3ncccc3F)C[C@H](F)C2)s1 [3-(5-((3-fluoro-1-(3-fluoropyridin-2-yl)cyclobutyl)methylamino)-1,3,4-thiadiazol-2-yl)-4-methylbenzamide]	–	–	Mean AC1.4 (Table 3): A (A=<1 uM)
Cc1ccc(C#N)cc1-c1nnc(NC[C@]2(c3ncccc3F)C[C@H](F)C2)s1 [3-(5-((3-fluoro-1-(3-fluoropyridin-2-yl)cyclobutyl)methylamino)-1,3,4-thiadiazol-2-yl)-4-methylbenzonitrile]	–	–	Mean AC1.4 (Table 3): B (B=1-10 uM)
N#Cc1cccc(-c2nnc(NC[C@]3(c4ncccc4F)C[C@@H](F)C3)s2)c1 [3-(5-(((cis)3-fluoro-1-(3-fluoropyridin-2-yl)cyclobutyl)methylamino)-1,3,4-thiadiazol-2-yl)benzonitrile]	–	–	Mean AC1.4 (Table 3): B (B=1-10 uM)
NC(=O)c1cccc(-c2nnc(NC[C@]3(c4ncccc4F)C[C@@H](F)C3)s2)c1 [3-(5-(((cis)-3-fluoro-1-(3-fluoropyridin-2-yl)cyclobutyl)methylamino)-1,3,4-thiadiazol-2-yl)benzamide]	–	–	Mean AC1.4 (Table 3): B (B=1-10 uM)
N#Cc1cccc(-c2nnc(NC[C@]3(c4ncccc4F)C[C@H](F)C3)s2)c1 [3-(5-(((trans)3-fluoro-1-(3-fluoropyridin-2-yl)cyclobutyl)methylamino)-1,3,4-thiadiazol-2-yl)benzonitrile]	–	–	Mean AC1.4 (Table 3): B (B=1-10 uM)

The next lines start with results.

Mean AC1.4 (Table 4)	Mean AC1.4 (Table 2)	Structure (SMILES)	also measured
B (B=1-10 uM)	–	COc1cccnc1C1(CNc2nc3ccc(C(N)=O)cc3s2)CCC1 [2-((1-(3-methoxypyridin-2-yl)cyclobutyl)methylamino)benzo[d] thiazole-6-carboxamide]	–
D (D=>20 uM)	–	COc1ccc(C2(CNc3nc4ccc(C#N)cc4s3)CCC2)nc1 [2-((1-(5-methoxypyridin-2-yl)cyclobutyl)methylamino)benzo[d] thiazole-6-carbonitrile]	–
B (B=1-10 uM)	–	COc1cccc(C2(CNc3nc4ccc(C(N)=O)cc4s3)CCC2)n1 [2-((1-(6-methoxypyridin-2-yl)cyclobutyl)methylamino)benzo[d] thiazole-6-carboxamide]	–
C (C=10-20 uM)	–	N#Cc1ccc2sc(NC[C@]3(c4ncccc4F)C[C@H](F)C3)nc2c1 [2-((3-fluoro-1-(3-fluoropyridin-2-yl)cyclobutyl)methylamino)benzo[d] thiazole-5-carbonitrile]	–
D (D=>20 uM)	–	NC(=O)c1cccc2nc(NC[C@]3(c4ncccc4F)C[C@H](F)C3)sc12 [2-((3-fluoro-1-(3-fluoropyridin-2-yl)cyclobutyl)methylamino)benzo[d] thiazole-7-carboxamide]	–
–	C (C=10-20 uM)	CC(C)(CNc1nc(CNC(=O)CN)ns1)c1ccc(F)cc1 [2-amino-N-[(5-{[2-(4-fluorophenyl)-2-methylpropyl]amino}(1,2,4-thiadiazol-3-yl))methyl]acetamide]	–
D (D=>20 uM)	–	N#Cc1ccc2nc(N)sc2c1 [2-aminobenzo[d]thiazole-6-carbonitrile]	–
–	A (A=<1 uM)	CC(C)(CNc1nc(-c2ccc(C(N)=O)c(F)c2)ns1)c1ccc(F)cc1 [2-fluoro-4-(5-{[2-(4-fluorophenyl)-2-methylpropyl]amino}(1,2,4-thiadiazol-3-yl))benzamide]	–
–	A (A=<1 uM)	CC(C)(CNc1nc(-c2ccc(F)c(C(N)=O)c2)ns1)c1ccc(F)cc1 [2-fluoro-5-(5-{[2-(4-fluorophenyl)-2-methylpropyl]amino}(1,2,4-thiadiazol-3-yl))benzamide]	–
–	B (B=1-10 uM)	CC(C)(CNc1nc(-c2ccc(F)c(C#N)c2)ns1)c1ccc(F)cc1 [2-fluoro-5-(5-{[2-(4-fluorophenyl)-2-methylpropyl]amino}(1,2,4-thiadiazol-3-yl))benzenecarbonitrile]	–
–	D (D=>20 uM)	CN(CCO)Cc1nsc(NCC(C)(C)c2ccc(F)cc2)n1 [2-{[(5-{[2-(4-fluorophenyl)-2-methylpropyl]amino}(1,2,4-thiadiazol-3-yl))methyl]methylamino}ethan-1-ol]	–
–	D (D=>20 uM)	NC(=O)c1cccc(-c2nc(NCCCc3ccccc3)ns2)c1 [3-(3-(3-phenylpropylamino)-1,2,4-thiadiazol-5-yl)benzamide]	–
–	D (D=>20 uM)	NC(=O)c1cccc(-c2nc(NCCc3ccccc3)ns2)c1 [3-(3-(phenethylamino)-1,2,4-thiadiazol-5-yl)benzamide]	–
